Measurements taken from EP0726263A2, “Herbicidal (1,3,4)oxadiazoles and thiadiazoles” (American Cyanamid Company, priority 1995, dated 1996).

Columns and labels:
Type in all cases: in vivo
[1] = tested on: Abutilon theophrasti; assay: Herbicidal activity, preemergence test; details: pre; sprayed onto soil, 800 g of active material per hectare; evaluated 3 weeks after treatment
Experimental: (§1) To evaluate their herbicidal activity, compounds according to the invention are tested using a representative range of plants: TRZAW Triticum aestivum HORVW Hordeum vulgare ZEAMX Zea mays GOSHI Gossypium hirsutum HELAN Helianthus annuus GLYMA Glycine max ALOMY Alopecurus myosuroides SETVI Setaria viridis ECHCG Echinochloa crus-galli GALAP Galium aparine STEME Stellaria media VERPE Veronica persica VIOAR Viola arvensis IPOHE Ipomoea hederacea LAMPU Lamium purpureum PAPRH Papaver rhoeas MATIN Matricaria inodora AMARE Amaranthus retroflexus ABUTH Abutilon theophrasti AMBEL Ambrosia artemisifolia CHEAL Chenopodium album
(§2) The tests fall into two categories, preemergence and postemergence. The preemergence tests involve spraying a liquid formulation of the compound onto the soil in which the seeds have recently been sown. The postemergence tests involve spraying a liquid formulation of the compound onto seedling plants.
(§3) The soil used in the tests is a prepared horticultural loam.
(§4) The formulations used in the tests are prepared from solutions of the test compounds in acetone containing 0.4% by weight of an alkylphenol/ethylene oxide condensate available under the trade mark TRITON X-155. These acetone solutions are diluted with water and the resulting formulations applied at dosage levels corresponding to 800 g of active material per hectare in a volume equivalent to 900 litres per hectare.
(§5) In the preemergence tests untreated sown soil and in the postemergence tests untreated soil bearing seedling plants are used as controls.
(§6) Results of herbicide evaluation are expressed on a rating scale (0-9). The scale is based upon a visual observation of plant stand, vigor, malformation, size, chlorosis, and general plant appearance as compared to a control. Preemergence and postemergence treatments are evaluated at 3 and 2 weeks after treatment, respectively.

[2] = tested on: Alopecurus myosuroides; assay: Herbicidal activity, preemergence test; details: pre; sprayed onto soil, 800 g of active material per hectare; evaluated 3 weeks after treatment
Experimental: as §1, §2, §3, §4, §5, §6

[3] = tested on: Amaranthus retroflexus; assay: Herbicidal activity, preemergence test; details: pre; sprayed onto soil, 800 g of active material per hectare; evaluated 3 weeks after treatment
Experimental: as §1, §2, §3, §4, §5, §6

[4] = tested on: Ambrosia artemisifolia; assay: Herbicidal activity, preemergence test; details: pre; sprayed onto soil, 800 g of active material per hectare; evaluated 3 weeks after treatment
Experimental: as §1, §2, §3, §4, §5, §6

[5] = tested on: Chenopodium album; assay: Herbicidal activity, preemergence test; details: pre; sprayed onto soil, 800 g of active material per hectare; evaluated 3 weeks after treatment
Experimental: as §1, §2, §3, §4, §5, §6

[6] = tested on: Galium aparine; assay: Herbicidal activity, preemergence test; details: pre; sprayed onto soil, 800 g of active material per hectare; evaluated 3 weeks after treatment
Experimental: as §1, §2, §3, §4, §5, §6

[7] = tested on: Glycine max; assay: Herbicidal activity, preemergence test; details: pre; sprayed onto soil, 800 g of active material per hectare; evaluated 3 weeks after treatment
Experimental: as §1, §2, §3, §4, §5, §6

[8] = tested on: Gossypium hirsutum; assay: Herbicidal activity, preemergence test; details: pre; sprayed onto soil, 800 g of active material per hectare; evaluated 3 weeks after treatment
Experimental: as §1, §2, §3, §4, §5, §6

[9] = tested on: Hordeum vulgare; assay: Herbicidal activity, preemergence test; details: pre; sprayed onto soil, 800 g of active material per hectare; evaluated 3 weeks after treatment
Experimental: as §1, §2, §3, §4, §5, §6

[10] = tested on: Ipomoea hederacea; assay: Herbicidal activity, preemergence test; details: pre; sprayed onto soil, 800 g of active material per hectare; evaluated 3 weeks after treatment
Experimental: as §1, §2, §3, §4, §5, §6

[11] = tested on: Lamium purpureum; assay: Herbicidal activity, preemergence test; details: pre; sprayed onto soil, 800 g of active material per hectare; evaluated 3 weeks after treatment
Experimental: as §1, §2, §3, §4, §5, §6

[12] = tested on: Matricaria inodora; assay: Herbicidal activity, preemergence test; details: pre; sprayed onto soil, 800 g of active material per hectare; evaluated 3 weeks after treatment
Experimental: as §1, §2, §3, §4, §5, §6

[13] = tested on: Papaver rhoeas; assay: Herbicidal activity, preemergence test; details: pre; sprayed onto soil, 800 g of active material per hectare; evaluated 3 weeks after treatment
Experimental: as §1, §2, §3, §4, §5, §6

[14] = tested on: Setaria viridis; assay: Herbicidal activity, preemergence test; details: pre; sprayed onto soil, 800 g of active material per hectare; evaluated 3 weeks after treatment
Experimental: as §1, §2, §3, §4, §5, §6

[15] = tested on: Stellaria media; assay: Herbicidal activity, preemergence test; details: pre; sprayed onto soil, 800 g of active material per hectare; evaluated 3 weeks after treatment
Experimental: as §1, §2, §3, §4, §5, §6

[16] = tested on: Triticum aestivum; assay: Herbicidal activity, preemergence test; details: pre; sprayed onto soil, 800 g of active material per hectare; evaluated 3 weeks after treatment
Experimental: as §1, §2, §3, §4, §5, §6

[17] = tested on: Veronica persica; assay: Herbicidal activity, preemergence test; details: pre; sprayed onto soil, 800 g of active material per hectare; evaluated 3 weeks after treatment
Experimental: as §1, §2, §3, §4, §5, §6

[18] = tested on: Zea mays; assay: Herbicidal activity, preemergence test; details: pre; sprayed onto soil, 800 g of active material per hectare; evaluated 3 weeks after treatment
Experimental: as §1, §2, §3, §4, §5, §6

[19] = tested on: Abutilon theophrasti; assay: Herbicidal activity, postemergence test; details: post; sprayed onto seedling plants, 800 g of active material per hectare; evaluated 2 weeks after treatment
Experimental: as §1, §2, §3, §4, §5, §6

[20] = tested on: Alopecurus myosuroides; assay: Herbicidal activity, postemergence test; details: post; sprayed onto seedling plants, 800 g of active material per hectare; evaluated 2 weeks after treatment
Experimental: as §1, §2, §3, §4, §5, §6

[21] = tested on: Amaranthus retroflexus; assay: Herbicidal activity, postemergence test; details: post; sprayed onto seedling plants, 800 g of active material per hectare; evaluated 2 weeks after treatment
Experimental: as §1, §2, §3, §4, §5, §6

[22] = tested on: Ambrosia artemisifolia; assay: Herbicidal activity, postemergence test; details: post; sprayed onto seedling plants, 800 g of active material per hectare; evaluated 2 weeks after treatment
Experimental: as §1, §2, §3, §4, §5, §6

[23] = tested on: Chenopodium album; assay: Herbicidal activity, postemergence test; details: post; sprayed onto seedling plants, 800 g of active material per hectare; evaluated 2 weeks after treatment
Experimental: as §1, §2, §3, §4, §5, §6

[24] = tested on: Galium aparine; assay: Herbicidal activity, postemergence test; details: post; sprayed onto seedling plants, 800 g of active material per hectare; evaluated 2 weeks after treatment
Experimental: as §1, §2, §3, §4, §5, §6

[25] = tested on: Glycine max; assay: Herbicidal activity, postemergence test; details: post; sprayed onto seedling plants, 800 g of active material per hectare; evaluated 2 weeks after treatment
Experimental: as §1, §2, §3, §4, §5, §6

[26] = tested on: Gossypium hirsutum; assay: Herbicidal activity, postemergence test; details: post; sprayed onto seedling plants, 800 g of active material per hectare; evaluated 2 weeks after treatment
Experimental: as §1, §2, §3, §4, §5, §6

[27] = tested on: Hordeum vulgare; assay: Herbicidal activity, postemergence test; details: post; sprayed onto seedling plants, 800 g of active material per hectare; evaluated 2 weeks after treatment
Experimental: as §1, §2, §3, §4, §5, §6

[28] = tested on: Ipomoea hederacea; assay: Herbicidal activity, postemergence test; details: post; sprayed onto seedling plants, 800 g of active material per hectare; evaluated 2 weeks after treatment
Experimental: as §1, §2, §3, §4, §5, §6

[29] = tested on: Lamium purpureum; assay: Herbicidal activity, postemergence test; details: post; sprayed onto seedling plants, 800 g of active material per hectare; evaluated 2 weeks after treatment
Experimental: as §1, §2, §3, §4, §5, §6

[30] = tested on: Matricaria inodora; assay: Herbicidal activity, postemergence test; details: post; sprayed onto seedling plants, 800 g of active material per hectare; evaluated 2 weeks after treatment
Experimental: as §1, §2, §3, §4, §5, §6

[31] = tested on: Papaver rhoeas; assay: Herbicidal activity, postemergence test; details: post; sprayed onto seedling plants, 800 g of active material per hectare; evaluated 2 weeks after treatment
Experimental: as §1, §2, §3, §4, §5, §6

[32] = tested on: Setaria viridis; assay: Herbicidal activity, postemergence test; details: post; sprayed onto seedling plants, 800 g of active material per hectare; evaluated 2 weeks after treatment
Experimental: as §1, §2, §3, §4, §5, §6

[33] = tested on: Stellaria media; assay: Herbicidal activity, postemergence test; details: post; sprayed onto seedling plants, 800 g of active material per hectare; evaluated 2 weeks after treatment
Experimental: as §1, §2, §3, §4, §5, §6

[34] = tested on: Triticum aestivum; assay: Herbicidal activity, postemergence test; details: post; sprayed onto seedling plants, 800 g of active material per hectare; evaluated 2 weeks after treatment
Experimental: as §1, §2, §3, §4, §5, §6

[35] = tested on: Veronica persica; assay: Herbicidal activity, postemergence test; details: post; sprayed onto seedling plants, 800 g of active material per hectare; evaluated 2 weeks after treatment
Experimental: as §1, §2, §3, §4, §5, §6

[36] = tested on: Zea mays; assay: Herbicidal activity, postemergence test; details: post; sprayed onto seedling plants, 800 g of active material per hectare; evaluated 2 weeks after treatment
Experimental: as §1, §2, §3, §4, §5, §6

C[C@H](NC(=O)c1nnc(-c2ccccc2F)o1)c1ccccc1 [Example 10]
6 (herbicidal effect): GALAP control rating (0-9) [24]
2 (slight effect): GLXMA control rating (0-9) [7] | TRZAW control rating (0-9) [34]
7 (good herbicidal effect): AMBEL control rating (0-9) [22] | CHEAL control rating (0-9) [23]
4 (injury): GLXMA control rating (0-9) [25] | HORVW control rating (0-9) [27]
1 (trace effect): ALOMY control rating (0-9) [2]
0 (no effect): ABUTH control rating (0-9) [1] | GALAP control rating (0-9) [6] | GOSHI control rating (0-9) [8] | HORVW control rating (0-9) [9] | IPOHE control rating (0-9) [10] | TRZAW control rating (0-9) [16] | ZEAMX control rating (0-9) [18] | ALOMY control rating (0-9) [20] | MATIN control rating (0-9) [30]
3 (moderate effect): AMBEL control rating (0-9) [4] | SETVI control rating (0-9) [14] | ZEAMX control rating (0-9) [36]
9 (complete kill): PAPRH control rating (0-9) [13] | STEME control rating (0-9) [15] | VERPE control rating (0-9) [17] | ABUTH control rating (0-9) [19] | AMARE control rating (0-9) [21] | SETVI control rating (0-9) [32] | STEME control rating (0-9) [33] | VERPE control rating (0-9) [35]
8 (approaching complete kill): AMARE control rating (0-9) [3] | CHEAL control rating (0-9) [5] | LAMPU control rating (0-9) [11] | MATIN control rating (0-9) [12] | GOSHI control rating (0-9) [26] | IPOHE control rating (0-9) [28] | LAMPU control rating (0-9) [29] | PAPRH control rating (0-9) [31]
